In test [1] the target is T1, human Kv7.2+3 (Homo sapiens, UniProt O43525+O43526).
T1 construct: expressed in transfected cells; host or cells: HEK293
As to the kind of experiment: Patch-clamp on HEK293 cell lines stably expressing human Kv7.2+3 channels. The test is classed as cell-based. Particulars: current relative to baseline current defined as 100%. An excerpt:
The effect obtained by these channel activators is described as a percentage increase in baseline current at a given concentration. The baseline current is defined as 100%, and an increase in current is expressed relative to this, i.e. an increase from 1 nA to 1.2 nA is reported as 120%.
Background: The patch-clamp technique gives a direct electrical read-out from membranes.

Test [2] addresses T1, human Kv7.2+3. As to the kind of experiment: FLIPR-based thallium (I) influx characterization of Kv7.2+3 modulators. The test is classed as cell-based. Particulars: for EC50: HEK293 cells over-expressing human Kv7.2+3, Tl+ influx, BTC-AM, 50% of channel activity compared to retigabine control responses; for Efficacy: maximal response relative to the reference (retigabine) response. On the procedure: This experiment determines the ability of a test compound to modulate the activity of Kv7.2+3 channels heterologously expressed in human HEK293 cells. The ability is determined relative to retigabine. The activity is determined using a standard thallium (I) sensitive assay, e.g. using a fluorometric method in a Fluorescent Image Plate Reader (FLIPR) as described below in more detail.
Full concentration/response curves are generated and EC50 values are calculated based on max values. EC50 values (Effective Concentration) represent the concentration of the test substance, at which 50% of the channel activity is obtained when compared to retigabine control responses. Maximal response determined relative to the reference (retigabine) response is calculated.
Human HEK293 cells over-expressing human Kv7.2+3 are grown in culture medium (DMEM supplemented with 10% foetal bovine serum), in polystyrene culture flasks ([…]) in a humidified atmosphere of 5% CO2 in air, at 37° C. Cell confluence should be 80-90% on day of plating. Cells are rinsed with 4 ml of PBS (phosphate buffered saline) and incubated 2 min with 1 ml of Trypsin-EDTA. After addition of 25 ml of culture medium cells are re-suspended by trituration with a 25 ml pipette.
The cells are seeded at a density of ˜3×10^6 cells/ml (25 μl/well) in blackwalled, clear bottom, 384-well plates pre-treated with 0.01 g/l poly-D-lysin (20 μl/well for ≧30 min). Plated cells were allowed to proliferate for 24 h before loading with dye.
BTC-AM (50 mg, Invitrogen) is added 25.5 μl DMSO. The BTC-AM stock solution (2 mM) is diluted to a final concentration of 2 μM in Cl^− free assay buffer (in mM: 140 Na^−-gluconate, 2.5 K^+-gluconate, 6 Ca2^+-gluconate, 1 Mg^2+ gluconate, 5 glucose, 10 HEPES, pH 7.3) containing 2 μM ouabain, 2 mM amaranth and 1 mM tartrazine. […]
After the loading period, the Tl^+-sensitive BTC fluorescence signal is measured over time using a FLIPR.
• Temperature: Room temp. • First addition: 12 μl test or control compound after 15 sec at a rate of 30 μl/sec and starting height of 20 μl • Second addition: 12 μl stimulus buffer (Cl^− free assay buffer supplemented with 1 mM Tl2SO4, 5 mM K2SO4 as well as the quenchers amaranth (2 mM) and tartrazine (1 mM)) is added after an additional 3 minutes at a rate of 30 μl/sec and starting height of 30 μl • Reading intervals: First sequence—3 sec×5, 2 sec×24 and 5 sec×25 • Second sequence—1 sec×5, 2 sec×24 and 5 sec×36 Addition plates (compound plate and stimulus plate) are placed in positions 2 and 3, respectively. […] Fluorescence obtained after stimulation is corrected for the mean basal fluorescence (in Cl^− free assay buffer). […]

The source of these data is patent publication US20120238547A1, “2, 3, 6 - TRIAMINO SUBSTITUTED PYRIDINES AS KV7 (KCNQ) CHANNEL MODULATORS” (NEUROSEARCH A/S, priority 2009, published 2012).

A word on the EC50: it is the midpoint of the concentration-response curve. Low values mean an effect from little substance, high ones a need for much substance. Consider `Cc1ccoc1C(=O)Nc1c(C)cc(N2CCCOCC2)nc1N1CC[C@@H](F)C1` [Compound 1.1, 3-Methyl-furan-2-carboxylic acid [2-((R)-3-fluoro-pyrrolidin-1-yl)-4-methyl-6-[1,4]oxazepan-4-yl-pyridin-3-yl]-amide], for which the “IK (%) conc. 0.3 μM, −30 mV, 20 ms” value at human Kv7.2+3 [1] was 293 (n = 2) %. On human Kv7.2+3 [2], this molecule yielded an EC50 of 1.2 µM and an Efficacy of 98%.

In the case of `Cc1ccoc1C(=O)Nc1c(C)cc(N2CCOCC2)nc1N1CC[C@@H](F)C1` [Compound 1.2, 3-Methyl-furan-2-carboxylic acid [2-((R)-3-fluoro-pyrrolidin-1-yl)-4-methyl-6-morpholin-4-yl-pyridin-3-yl]-amide], the “IK (%) conc. 0.03 μM, −30 mV, 20 ms” value on human Kv7.2+3 [1] (0.03 μM) is 136%. Moreover, on human Kv7.2+3 [1], the “IK (%) conc. 0.3 μM, −30 mV, 20 ms” value is 428 (n = 5) %. Further, on human Kv7.2+3 [2], the response was half-maximal at 0.19 µM (EC50) and the Efficacy is 98%.
